Experimental data taken from ChEMBL document CHEMBL1201862, “PubChem BioAssay data set” (2004).
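The compound was tested at five concentrations on cells cultured in 96-well plates, with a 48-hour exposure period. At the GI50, growth is halved.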 Active and inactive are the calls of the source. No stated cut-off is given here; in the data, active = GI50 up to about 1.1 µM and inactive = higher.

Key:
Test in all cases: growth of human tumour cells (NCI), 48 h
A498 = system: A498
DU-145 = system: DU-145
EKVX = system: EKVX
HL-60 = system: HL-60
IGROV-1 = system: IGROV-1
K562 = system: K562
KM12 = system: KM12
MDA-MB-435 = system: MDA-MB-435
MDA-N = system: MDA-N
MOLT-4 = system: MOLT-4
Malme-3M = system: Malme-3M
NCI-H226 = system: NCI-H226
NCI-H522 = system: NCI-H522
OVCAR-4 = system: OVCAR-4
OVCAR-5 = system: OVCAR-5
OVCAR-8 = system: OVCAR-8
SF-539 = system: SF-539
T47D = system: T47D
UACC-257 = system: UACC-257
UO-31 = system: UO-31

Measured: GI50

CC(C)n1c2c(c3ccccc3c1=O)C(=O)c1ccccc1-2
inactive: A498 > 100 µM | DU-145 > 100 µM | EKVX > 100 µM | HL-60 > 100 µM | IGROV-1 > 100 µM | K562 > 100 µM | KM12 > 100 µM | MDA-MB-435 > 100 µM | MDA-N > 100 µM | MOLT-4 > 100 µM | Malme-3M > 100 µM | NCI-H226 > 100 µM | NCI-H522 > 100 µM | OVCAR-4 50.5 µM | OVCAR-5 > 100 µM | OVCAR-8 > 100 µM | SF-539 > 100 µM | T47D > 100 µM | UACC-257 > 100 µM | UO-31 > 100 µM

CC(=O)NNc1nc(-c2ccc([N+](=O)[O-])cc2)c(C#N)c(=O)n1C
inactive: A498 25.5 µM | DU-145 34.2 µM | EKVX 38 µM | HL-60 25.9 µM | IGROV-1 16.8 µM | K562 24.3 µM | KM12 54.1 µM | MDA-MB-435 50.6 µM | MDA-N 86.7 µM | MOLT-4 36.8 µM | Malme-3M > 100 µM | NCI-H522 22.1 µM | OVCAR-4 20.1 µM | OVCAR-5 27.5 µM | OVCAR-8 27 µM | SF-539 18.3 µM | T47D > 100 µM | UACC-257 > 100 µM | UO-31 37.6 µM

CCN(CC)CCOc1ccc(N2C(=O)c3cc(OC)c(OC)cc3C2=O)cc1
inactive: A498 > 100 µM | DU-145 > 100 µM | EKVX > 100 µM | HL-60 > 100 µM | IGROV-1 > 100 µM | K562 > 100 µM | KM12 > 100 µM | MDA-MB-435 > 100 µM | MDA-N > 100 µM | MOLT-4 > 100 µM | Malme-3M > 100 µM | NCI-H226 > 100 µM | NCI-H522 > 100 µM | OVCAR-4 > 100 µM | OVCAR-5 > 100 µM | OVCAR-8 > 100 µM | SF-539 > 100 µM | T47D > 100 µM | UACC-257 > 100 µM

CO/C(N)=C(C#N)/N=C/c1ccco1
inactive: A498 > 100 µM | DU-145 > 100 µM | EKVX > 100 µM | HL-60 > 100 µM | IGROV-1 > 100 µM | K562 > 100 µM | KM12 > 100 µM | MDA-MB-435 > 100 µM | MDA-N > 100 µM | MOLT-4 > 100 µM | Malme-3M > 100 µM | NCI-H226 > 100 µM | NCI-H522 > 100 µM | OVCAR-4 > 100 µM | OVCAR-5 > 100 µM | OVCAR-8 > 100 µM | T47D > 100 µM | UACC-257 > 100 µM | UO-31 > 100 µM

COc1c(O)ccc(C2=Cc3ccc(O)cc3OC2)c1OC
inactive: A498 27.9 µM | DU-145 26.7 µM | EKVX 15.1 µM | HL-60 2.82 µM | IGROV-1 25.8 µM | K562 7.08 µM | KM12 7.33 µM | MDA-MB-435 7.64 µM | MDA-N 3.68 µM | MOLT-4 6.82 µM | Malme-3M 18.9 µM | NCI-H226 23.4 µM | NCI-H522 2.34 µM | OVCAR-4 23.9 µM | OVCAR-5 30.1 µM | OVCAR-8 18 µM | SF-539 16.3 µM | T47D 25.6 µM | UACC-257 30.3 µM | UO-31 11.6 µM

CC1C(c2ccccc2O)c2cc3c(cc2OC1N1CCCC1)OCO3 (centres undefined)
inactive: A498 23.2 µM | DU-145 45.1 µM | EKVX 41.9 µM | HL-60 19.2 µM | IGROV-1 39.3 µM | K562 20 µM | KM12 33.5 µM | MDA-MB-435 26.9 µM | MDA-N 18.8 µM | MOLT-4 19.6 µM | Malme-3M 25.3 µM | NCI-H226 27.9 µM | NCI-H522 23.2 µM | OVCAR-5 32.2 µM | OVCAR-8 11.5 µM | SF-539 24.9 µM | T47D 34.7 µM | UACC-257 25.1 µM | UO-31 31.6 µM

Nc1ccc(COC(O)CN2CCCCC2)cc1[N+](=O)[O-] (centres undefined)
inactive: A498 > 100 µM | DU-145 > 100 µM | HL-60 > 100 µM | IGROV-1 > 100 µM | K562 > 100 µM | KM12 > 100 µM | MDA-MB-435 > 100 µM | MDA-N > 100 µM | MOLT-4 > 100 µM | Malme-3M > 100 µM | NCI-H226 > 100 µM | NCI-H522 > 100 µM | OVCAR-4 > 100 µM | OVCAR-5 > 100 µM | OVCAR-8 > 100 µM | SF-539 > 100 µM | T47D > 100 µM | UACC-257 > 100 µM | UO-31 > 100 µM

COC(=O)CCNC(=O)OCc1ccccc1
inactive: A498 > 100 µM | DU-145 > 100 µM | EKVX > 100 µM | HL-60 > 100 µM | IGROV-1 > 100 µM | K562 > 100 µM | KM12 > 100 µM | MDA-MB-435 > 100 µM | MDA-N > 100 µM | MOLT-4 > 100 µM | Malme-3M > 100 µM | NCI-H226 > 100 µM | NCI-H522 > 100 µM | OVCAR-5 > 100 µM | OVCAR-8 > 100 µM | SF-539 > 100 µM | T47D > 100 µM | UACC-257 > 100 µM | UO-31 > 100 µM

C1CSCCSCCSCCSCCS1
inactive: A498 > 100 µM | DU-145 > 100 µM | EKVX > 100 µM | HL-60 > 100 µM | IGROV-1 > 100 µM | K562 > 100 µM | KM12 > 100 µM | MDA-MB-435 > 100 µM | MDA-N > 100 µM | MOLT-4 > 100 µM | NCI-H226 > 100 µM | NCI-H522 > 100 µM | OVCAR-4 > 100 µM | OVCAR-5 > 100 µM | OVCAR-8 > 100 µM | SF-539 > 100 µM | T47D > 100 µM | UACC-257 > 100 µM | UO-31 > 100 µM

CN1CCN(CCCBr)CC1
inactive: A498 > 100 µM | DU-145 > 100 µM | EKVX > 100 µM | HL-60 > 100 µM | IGROV-1 > 100 µM | K562 > 100 µM | KM12 > 100 µM | MDA-MB-435 > 100 µM | MDA-N > 100 µM | Malme-3M > 100 µM | NCI-H226 > 100 µM | NCI-H522 > 100 µM | OVCAR-4 > 100 µM | OVCAR-5 > 100 µM | OVCAR-8 > 100 µM | SF-539 > 100 µM | T47D > 100 µM | UACC-257 > 100 µM | UO-31 > 100 µM

COc1ccc(C2C(C#N)=C(S)N(C3OC(COC(C)=O)C(OC(C)=O)C(OC(C)=O)C3OC(C)=O)C(c3ccccc3)=C2C(C)=O)cc1 (centres undefined)
inactive: A498 > 100 µM | DU-145 > 100 µM | HL-60 63.8 µM | IGROV-1 > 100 µM | K562 37.5 µM | KM12 > 100 µM | MDA-MB-435 33.6 µM | MDA-N 58.5 µM | MOLT-4 64.4 µM | Malme-3M > 100 µM | NCI-H226 > 100 µM | NCI-H522 61.4 µM | OVCAR-4 > 100 µM | OVCAR-5 > 100 µM | OVCAR-8 > 100 µM | SF-539 76.7 µM | T47D 17.3 µM | UACC-257 > 100 µM | UO-31 21.6 µM

CCSc1cc(=O)n(C)c(=O)n1C
inactive: A498 > 100 µM | DU-145 > 100 µM | EKVX > 100 µM | HL-60 > 100 µM | KM12 > 100 µM | MDA-MB-435 > 100 µM | MDA-N > 100 µM | MOLT-4 > 100 µM | Malme-3M > 100 µM | NCI-H226 > 100 µM | NCI-H522 > 100 µM | OVCAR-4 > 100 µM | OVCAR-5 > 100 µM | OVCAR-8 > 100 µM | SF-539 > 100 µM | T47D > 100 µM | UACC-257 > 100 µM | UO-31 > 100 µM

Nc1ncnc2c1ccn2C/C=C\CO
inactive: A498 > 100 µM | DU-145 > 100 µM | EKVX > 100 µM | HL-60 > 100 µM | IGROV-1 > 100 µM | K562 > 100 µM | KM12 > 100 µM | MDA-MB-435 > 100 µM | MDA-N > 100 µM | MOLT-4 85.9 µM | Malme-3M > 100 µM | NCI-H522 84.7 µM | OVCAR-4 > 100 µM | OVCAR-5 > 100 µM | OVCAR-8 > 100 µM | SF-539 > 100 µM | T47D > 100 µM | UACC-257 > 100 µM | UO-31 > 100 µM

O=C1CSC2=NC3=C(COC/C3=C\c3ccc(Br)cc3)C(c3ccc(Br)cc3)N12 (centres undefined)
inactive: A498 > 100 µM | DU-145 > 100 µM | EKVX > 100 µM | HL-60 12.9 µM | IGROV-1 98.6 µM | K562 28.9 µM | KM12 29.1 µM | MDA-MB-435 49 µM | MDA-N 43 µM | MOLT-4 15.2 µM | NCI-H226 > 100 µM | NCI-H522 3.92 µM | OVCAR-4 > 100 µM | OVCAR-5 > 100 µM | OVCAR-8 74.6 µM | SF-539 > 100 µM | T47D 53.2 µM | UACC-257 > 100 µM | UO-31 35.3 µM

CC(C)(C)OC(=O)N1C(=O)OC[C@@H]2C=C[C@@H]21
inactive: A498 > 100 µM | DU-145 > 100 µM | EKVX > 100 µM | HL-60 > 100 µM | IGROV-1 > 100 µM | KM12 > 100 µM | MDA-MB-435 > 100 µM | MDA-N > 100 µM | MOLT-4 > 100 µM | Malme-3M > 100 µM | NCI-H522 > 100 µM | OVCAR-4 > 100 µM | OVCAR-5 > 100 µM | OVCAR-8 > 100 µM | SF-539 > 100 µM | T47D > 100 µM | UACC-257 > 100 µM
